By IC50 is commonly meant the point on the concentration scale where inhibition reaches its midpoint.

Bounds are passed on as bounds.

Assay [1] deals with UTP-stimulated Ca2+ response in HT-29 cells. In words: Ca FLIPR TETRA assay, ANTAGONIST mode, stimulation with 0.6 μM UTP. The note with it: Homo sapiens; HT-29 cells, antagonist mode, stimulation with 0.6 μM UTP. The assay is classed as cell-based, human. In outline:
(§1)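 HT-29 cells grown overnight in 1% FBS McCoy's medium were loaded with calcium 5 dye (45 min 37 °C, 15 min r.t.). Compounds were added and Ca2+ read for direct activation, then after 30 min at r.t. cells were stimulated with 8 μM SLIGKV, 1 U/mL thrombin, 3.1 U/mL trypsin or 0.6 μM UTP (final).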

The target in assay [2] is T1, PAR2 (HT-29 cells, SLIGKV activation) (Homo sapiens, UniProt P55085).
T1 construct: host or cells: HT-29 cells
T1 sequence (P55085 26-397): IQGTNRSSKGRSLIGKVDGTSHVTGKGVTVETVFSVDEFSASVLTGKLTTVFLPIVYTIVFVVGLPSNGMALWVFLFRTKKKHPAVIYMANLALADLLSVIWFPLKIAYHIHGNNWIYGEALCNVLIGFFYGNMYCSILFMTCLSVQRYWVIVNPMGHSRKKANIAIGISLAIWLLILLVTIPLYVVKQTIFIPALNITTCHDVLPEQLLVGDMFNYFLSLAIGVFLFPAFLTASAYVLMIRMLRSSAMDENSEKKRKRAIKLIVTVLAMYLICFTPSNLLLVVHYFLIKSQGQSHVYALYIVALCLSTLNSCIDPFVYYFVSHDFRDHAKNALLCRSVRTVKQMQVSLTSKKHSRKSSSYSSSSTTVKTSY
In words: Ca FLIPR TETRA assay, ANTAGONIST mode, stimulation with 8 μM SLIGKV. It is filed as cell-based. The note with it: HT-29 cells, antagonist mode, stimulation with 8 μM SLIGKV. The method in brief: as §1

Assay [3] concerns the target T2, PAR2 (HT-29 cells, trypsin activation) (Homo sapiens, UniProt P55085).
T2 construct: host or cells: HT-29 cells
T2 sequence (P55085 26-397): T1 sequence (P55085 26-397)
In words: Ca FLIPR TETRA assay, ANTAGONIST mode, stimulation with 3.1 U/mL trypsin. To be noted: HT-29 cells, antagonist mode, stimulation with 3.1 U/mL trypsin. The assay is classed as cell-based. The method in brief: as §1

Assay [4] has as its system Thrombin-stimulated Ca2+ response in HT-29 cells. In words: Ca FLIPR TETRA assay, ANTAGONIST mode, stimulation with 1 U/mL Thrombin. The note with it: Homo sapiens; HT-29 cells, antagonist mode, stimulation with 1 U/mL Thrombin. It is filed as cell-based, human. In outline: as §1

For `Cc1ccc(-c2cc(C(C)(C)C)c3nc(C(=O)N4CCN(C(=O)c5nnc(C)o5)CC4(C)C)cn3n2)cc1` [Compound I-393], the IC50 was more than 1000 nM in assay [1], 1.6 nM in assay [2], 1.5 nM in assay [3] and more than 1000 nM in assay [4].

As to `Cc1ccc(-c2cc(C(C)(C)C)c3nc(C(=O)N4CCN(C(=O)c5ccn[nH]5)CC4(C)C)cn3n2)cc1` [Compound I-394], the IC50 in assay [1] was more than 1000 nM; in assay [2], 0.9 nM; in assay [3] it was 1.1 nM; in assay [4], more than 1000 nM.

As for `Cc1ccc(-c2cc(C(C)(C)C)c3nc(C(=O)N4CCN(C(=O)c5cc(C)n[nH]5)CC4(C)C)cn3n2)cc1` [Compound I-395], the IC50 in assay [1] was more than 1000 nM; in assay [2], 0.6 nM; in assay [3], 0.5 nM; in assay [4], more than 1000 nM.

As to `Cc1ccc(-c2cc(C(C)(C)C)c3nc(C(=O)N4CCN(C(=O)[C@H]5C[C@@](C)(O)C5)CC4(C)C)cn3n2)cc1` [Compound I-396], the IC50 was more than 1000 nM in assay [1], 0.4 nM in assay [2], 0.7 nM in assay [3] and more than 1000 nM in assay [4].

Take `Cc1ccc(-c2cc(C(C)(C)C)c3nc(C(=O)N4CCN(C(=O)c5nc(C)n[nH]5)CC4(C)C)cn3n2)cc1` [Compound I-397]: the IC50 was more than 1000 nM in assay [1], 0.6 nM in assay [2], 0.6 nM in assay [3] and more than 1000 nM in assay [4].

Turning to `CC(C)(C)c1cc(-c2ccc(C(F)(F)F)cc2)nn2cc(C(=O)N3CCN(C(=O)c4ccccn4)CC3(C)C)nc12` [Compound I-398], the half-maximal inhibitory concentration (IC50) was more than 1000 nM in assay [1], 3.1 nM in assay [2], 2.6 nM in assay [3] and more than 1000 nM in assay [4].

In the case of `CC(C)(C)c1cc(-c2ccc(C(F)(F)F)cc2)nn2cc(C(=O)N3CCN(C(=O)c4ncccn4)CC3(C)C)nc12` [Compound I-399], the IC50 was more than 1000 nM in assay [1], 1.8 nM in assay [2], 1.5 nM in assay [3] and more than 1000 nM in assay [4].

On to `Cc1nnc(C(=O)N2CCN(C(=O)c3cn4nc(-c5ccc(C(F)(F)F)cc5)cc(C(C)(C)C)c4n3)C(C)(C)C2)o1` [Compound I-400], for which the concentration for half-maximal inhibition (IC50) in assay [1] was more than 1000 nM; in assay [2], 3.6 nM; in assay [3], 2.8 nM; in assay [4], more than 1000 nM.

With `CC(C)(C)c1cc(-c2ccc(C(F)(F)F)cc2)nn2cc(C(=O)N3CCN(C(=O)c4ccn[nH]4)CC3(C)C)nc12` [Compound I-401], the concentration for half-maximal inhibition (IC50) in assay [1] was more than 1000 nM; in assay [2], 2.1 nM; in assay [3], 1.5 nM; in assay [4] it was more than 1000 nM.

Consider `Cc1cc(C(=O)N2CCN(C(=O)c3cn4nc(-c5ccc(C(F)(F)F)cc5)cc(C(C)(C)C)c4n3)C(C)(C)C2)[nH]n1` [Compound I-402], for which the IC50 is more than 1000 nM in assay [1], 0.8 nM in assay [2], 1 nM in assay [3] and more than 1000 nM in assay [4].

In the case of `Cc1n[nH]c(C(=O)N2CCN(C(=O)c3cn4nc(-c5ccc(C(F)(F)F)cc5)cc(C(C)(C)C)c4n3)C(C)(C)C2)n1` [Compound I-403], the IC50 in assay [1] is more than 1000 nM; in assay [2], 1 nM; in assay [3], 1.5 nM; in assay [4], more than 1000 nM.

On to `Cc1cccc(-c2cc(C(C)(C)C)c3nc(C(=O)N4CCN(C(=O)c5ccn[nH]5)CC4(C)C)cn3n2)c1` [Compound I-404], for which the IC50 was more than 1000 nM in assay [1], 0.9 nM in assay [2], 4.3 nM in assay [3] and 690 nM in assay [4].

In the case of `Cc1cc(-c2cc(C(C)C)c3nc(C(=O)N4CCN(c5cn[nH]c5)C(=O)C4(C)C)cn3n2)ccc1F` [Compound I-405], the half-inhibitory concentration (IC50) in assay [1] is more than 1000 nM; in assay [2], 1.6 nM; in assay [3] it was 1.8 nM; in assay [4], more than 1000 nM.

On to `Cc1cccc(-c2cc(C(C)(C)C)c3nc(C(=O)N4CCN(C(=O)c5cc(C)n[nH]5)CC4(C)C)cn3n2)c1` [Compound I-406], for which the IC50 in assay [1] is more than 1000 nM; in assay [2] it was 2.2 nM; in assay [3], 2.8 nM; in assay [4], 370 nM.

Turning to `Cc1cccc(-c2cc(C(C)(C)C)c3nc(C(=O)N4CCN(C(=O)c5c[nH]c(C)n5)CC4(C)C)cn3n2)c1` [Compound I-407], the IC50 in assay [1] was more than 1000 nM; in assay [2], 5.6 nM; in assay [3], 5.1 nM; in assay [4], more than 1000 nM.

As for `Cc1cccc(-c2cc(C(C)(C)C)c3nc(C(=O)N4CCN(C(=O)c5nc(C)n[nH]5)CC4(C)C)cn3n2)c1` [Compound I-408], the IC50 in assay [1] is more than 1000 nM; in assay [2], 2.8 nM; in assay [3], 4.3 nM; in assay [4], 540 nM.

Take `Cc1cccc(-c2cc(C(C)(C)C)c3nc(C(=O)N4CCN(C(=O)C5CC(C)(O)C5)CC4(C)C)cn3n2)c1` (stereo not shown) [Compound I-409]: the half-inhibitory concentration (IC50) in assay [1] was more than 1000 nM; in assay [2], 1.7 nM; in assay [3], 1.7 nM; in assay [4], 830 nM.

For `Cc1cccc(-c2cc(C(C)(C)C)c3nc(C(=O)N4CCN(C(=O)c5nnc(C)o5)CC4(C)C)cn3n2)c1` [Compound I-410], the IC50 in assay [1] is more than 1000 nM; in assay [2] it was 6.3 nM; in assay [3] it was 8.2 nM; in assay [4] it was 950 nM.

As for `Cc1cccc(-c2cc(C(C)(C)C)c3nc(C(=O)N4CCN(C(=O)c5ccccn5)CC4(C)C)cn3n2)c1` [Compound I-411], the IC50 in assay [1] was more than 1000 nM; in assay [2], 4.8 nM; in assay [3], 6.5 nM; in assay [4] it was 880 nM.

`Cc1cccc(-c2cc(C(C)(C)C)c3nc(C(=O)N4CCN(C(=O)c5ncccn5)CC4(C)C)cn3n2)c1` [Compound I-412]: the IC50 in assay [1] is more than 1000 nM; in assay [2] it was 6.4 nM; in assay [3], 10 nM; in assay [4], 710 nM.

On to `Cc1nc(C(=O)N2CCN(C(=O)c3cn4nc(-c5ccc(C(F)(F)F)cc5)cc(C(C)C)c4n3)C(C)(C)C2)n[nH]1` [Compound I-413], for which the IC50 was more than 1000 nM in assay [1], 3.4 nM in assay [2], 4.3 nM in assay [3] and more than 1000 nM in assay [4].

With `Cc1n[nH]c(C(=O)N2CCN(C(=O)c3cn4nc(-c5ccc(F)c(C)c5)cc(C(C)(C)C)c4n3)C(C)(C)C2)n1` [Compound I-414], the 50% inhibitory concentration (IC50) in assay [1] is more than 1000 nM; in assay [2], 1 nM; in assay [3], 1.3 nM; in assay [4] it was more than 1000 nM.

With `Cc1ccc(-c2cc(C(C)(C)C)c3nc(C(=O)N4CCN(C(=O)[C@H]5C[C@@](C)(O)C5)CC4(C)C)cn3n2)cc1F` [Compound I-415], the IC50 in assay [1] is more than 1000 nM; in assay [2], 0.3 nM; in assay [3], 0.5 nM; in assay [4], more than 1000 nM.

With `Cc1nc(C(=O)N2CCN(C(=O)c3cn4nc(-c5ccc(C)c(F)c5)cc(C(C)(C)C)c4n3)C(C)(C)C2)n[nH]1` [Compound I-416], the IC50 was more than 1000 nM in assay [1], 0.6 nM in assay [2], 0.6 nM in assay [3] and more than 1000 nM in assay [4].

As to `Cc1cc(-c2cc(C(C)(C)C)c3nc(C(=O)N4CCN(c5c[nH]cn5)C(=O)C4(C)C)cn3n2)ccc1F` [Compound I-418], the IC50 in assay [1] is more than 1000 nM; in assay [2], 7.6 nM; in assay [3], 7.1 nM; in assay [4], more than 1000 nM.

The values above are taken from patent US20190119282A1, “IMIDAZOPYRIDAZINES USEFUL AS INHIBITORS OF THE PAR-2 SIGNALING PATHWAY” (Vertex Pharmaceuticals Incorporated, priority 2013, published 2019).
